These results are taken from paper PMC3816974 (Bioorganic & medicinal chemistry, 2013).

Values after ≈ are worked out from the molar mass of the structure shown.

As usually defined, the MIC is the smallest concentration in the dilution series that meets the test's criterion for growth inhibition.

The test system of the first assay is M. tuberculosis H37Rv. Kind of assay: M. tuberculosis H37Rv MIC assay.
Settings: not given
It is filed as cell-based, Mycobacterium tuberculosis.
Regarding “2-[N-(Benzoyl)amino]-4-(thiazol-2-yl)thiazole [Compound 92]”, the “MIC, μM (7H9-glucose)” value was above 25 µM.

The same assay, now with this note: M. tuberculosis H37Rv.
As to “2-[N-(Benzoyl)amino]-4-(thiazol-2-yl)thiazole [Compound 92]”, the “antitubercular activity (in words)” value is “inactive”.
As for `O=C(Nc1nc(-c2cnccn2)cs1)c1ccccc1` [Compound 91, 2-[N-(Benzoyl)amino]-4-(pyrazin-2-yl)thiazole], the “antitubercular activity (in words)” value was “inactive”.
The same measure, in the same setting: next, `O=C(Nc1nc(-c2ccccc2)cs1)c1ccccc1` [Compound 90, 2-[N-(Benzoyl)amino]-4-(phenyl)thiazole]: “obliterates all activity”.

Still in this assay, the particulars now being: M. tuberculosis H37Rv; GAST medium (glycerol and alanine); […].
For the molecule “2-[N-(Benzoyl)amino]-4-(thiazol-2-yl)thiazole [Compound 92]”, the “MIC, μM (GAST)” value is at least 25 µM.

The same assay, now with this note: Mycobacterium tuberculosis, H37RV, read-out: MIC, μM (7H9-butyrate).
As for `O=C(Nc1nc(-c2ccccn2)cs1)c1ccccc1O` [Compound 45], the MIC lay in the range of 1.6 to 3.1 µM (≈ 0.476 to 0.922 µg/mL).
The same measure, in the same setting: next, `Cc1cccc(C(=O)Nc2nc(-c3ccccn3)cs2)c1` [Compound 37]: 0.049 to 0.098 µM (≈ 0.0145 to 0.0289 µg/mL); `O=C(Nc1nc(-c2ccccn2)cs1)c1ccccc1Cl` [Compound 54]: 0.19 to 0.39 µM (≈ 0.06 to 0.123 µg/mL).
Turning to `O=C(Nc1nc(-c2ccccn2)cs1)c1ccccn1` [Compound 68], the MIC lay in the range of 3.1 to 6.3 µM (≈ 0.875 to 1.78 µg/mL).
As to `COc1ccccc1C(=O)Nc1nc(-c2ccccn2)cs1` [Compound 42], the MIC fell in the range of 3.1 to 6.3 µM (≈ 0.965 to 1.96 µg/mL).
As to `Cc1ccccc1C(=O)Nc1nc(-c2ccccn2)cs1` [Compound 36], the MIC lay in the range of 0.19 to 0.39 µM (≈ 0.0561 to 0.115 µg/mL).
Consider `COc1ccc(C(=O)Nc2nc(-c3ccccn3)cs2)cc1` [Compound 44], for which the minimum inhibitory concentration (MIC) was in the range of 0.19 to 0.39 µM (≈ 0.0592 to 0.121 µg/mL).
Still for that read-out and setting: next, `CC(=O)c1ccc(C(=O)Nc2nc(-c3ccccn3)cs2)cc1` [Compound 48]: 0.19 to 0.39 µM (≈ 0.0614 to 0.126 µg/mL).
For the molecule `O=C(Nc1nc(-c2ccccn2)cs1)c1c(F)cccc1Cl` [Compound 66], the MIC fell in the range of 0.39 to 0.78 µM (≈ 0.13 to 0.26 µg/mL).

The assay is the same for the next values; noted with them: Mycobacterium tuberculosis, H37RV, read-out: MIC, μM (7H9-glucose).
For `FC(F)(F)c1ccccc1Nc1nc(-c2ccccn2)cs1` [Compound 13], the minimum inhibitory concentration (MIC) fell in the range of 12 to 25 µM (≈ 3.86 to 8.03 µg/mL).
Still for that read-out and setting: next, `O=C(Nc1nc(-c2ccccn2)cs1)c1ccccc1O` [Compound 45]: 1.6 to 3.1 µM (≈ 0.476 to 0.922 µg/mL); `O=C(Nc1nc(-c2ccccn2)cs1)c1ccncc1` [Compound 70]: 1.6 to 3.1 µM (≈ 0.452 to 0.875 µg/mL).
For `CC1CC1C(=O)Nc1nc(-c2ccccn2)cs1` (stereo not shown) [Compound 29], the MIC was 6.3 to 12.5 µM (≈ 1.63 to 3.24 µg/mL).
For the molecule `Cc1cccc(C(=O)Nc2nc(-c3ccccn3)cs2)c1` [Compound 37], the minimum inhibitory concentration (MIC) is 0.19 to 0.39 µM (≈ 0.0561 to 0.115 µg/mL).
Regarding `O=C(Nc1nc(-c2ccccn2)cs1)c1ccoc1` [Compound 31], the minimum inhibitory concentration (MIC) fell in the range of 3.1 to 6.3 µM (≈ 0.841 to 1.71 µg/mL).
Same read-out and setting: next, `O=C(Nc1nc(-c2ccccn2)cs1)c1ccccc1Cl` [Compound 54]: 0.39 to 0.78 µM (≈ 0.123 to 0.246 µg/mL); `O=C(Nc1nc(-c2ccccn2)cs1)c1ccco1` [Compound 30]: 3.1 to 6.3 µM (≈ 0.841 to 1.71 µg/mL).
Regarding `O=C(Nc1nc(-c2ccccn2)cs1)c1ccccc1[N+](=O)[O-]` [Compound 49], the MIC lay in the range of 1.6 to 3.1 µM (≈ 0.522 to 1.01 µg/mL).
Regarding `O=C(Nc1nc(-c2ccccn2)cs1)c1cccc(OCc2ccccc2)c1` [Compound 40], the MIC was 0.39 to 0.78 µM (≈ 0.151 to 0.302 µg/mL).
For the molecule `O=C(Nc1nc(-c2ccccn2)cs1)c1cccnc1Cl` [Compound 67], the minimal inhibitory concentration (MIC) lay within 0.39 to 0.78 µM (≈ 0.124 to 0.247 µg/mL).
As for `O=C(Nc1nc(-c2ccccn2)cs1)c1cccc([N+](=O)[O-])c1` [Compound 50], the MIC was in the range of 1.6 to 3.1 µM (≈ 0.522 to 1.01 µg/mL).
On to `O=C(Nc1nc(-c2ccccn2)cs1)c1ccc(F)cc1F` [Compound 61], for which the MIC fell in the range of 0.39 to 0.78 µM (≈ 0.124 to 0.248 µg/mL).
As for `O=C(Nc1nc(-c2ccccn2)cs1)c1ccccc1Br` [Compound 51], the MIC was in the range of 0.39 to 0.78 µM (≈ 0.14 to 0.281 µg/mL).
As for `O=C(Nc1nc(-c2ccccn2)cs1)c1ccc(F)c(F)c1` [Compound 64], the minimum inhibitory concentration (MIC) lay in the range of 1.6 to 3.1 µM (≈ 0.508 to 0.984 µg/mL).
The same measure, in the same setting: next, `O=C(Nc1nc(-c2ccccn2)cs1)c1ccc(OCc2ccccc2)cc1` [Compound 41]: 0.19 to 0.39 µM (≈ 0.0736 to 0.151 µg/mL); `O=C(Nc1nc(-c2ccccn2)cs1)c1cccc(Cl)c1` [Compound 55, N-(3-Chlorobenzoyl)-4-(2-pyridinyl)-1,3-thiazol-2-amine]: 0.19 to 0.39 µM (≈ 0.06 to 0.123 µg/mL); `O=C(Nc1nc(-c2ccccn2)cs1)c1cccs1` [Compound 32]: 1.6 to 3.1 µM (≈ 0.46 to 0.891 µg/mL).
Regarding `O=C(Nc1nc(-c2ccccn2)cs1)C1CC1` [Compound 25], the minimum inhibitory concentration (MIC) lay within 12 to 25 µM (≈ 2.94 to 6.13 µg/mL).
As to `O=C(Nc1nc(-c2ccccn2)cs1)c1cccc(Br)c1` [Compound 52], the minimum inhibitory concentration (MIC) fell in the range of 0.098 to 0.19 µM (≈ 0.0353 to 0.0684 µg/mL).
Still for that read-out and setting: next, `O=C(Nc1nc(-c2ccccn2)cs1)c1ccccc1F` [Compound 57]: 1.6 to 3.1 µM (≈ 0.479 to 0.928 µg/mL); `c1ccc(Nc2nc(-c3ccccn3)cs2)nc1` [Compound 17]: 0.78 to 1.6 µM (≈ 0.198 to 0.407 µg/mL); `O=C(Nc1nc(-c2ccccn2)cs1)c1cccc(F)c1` [Compound 58]: 0.19 to 0.39 µM (≈ 0.0569 to 0.117 µg/mL).
For `O=C(Nc1nc(-c2ccccn2)cs1)c1ccsc1` [Compound 33], the MIC was 1.6 to 3.1 µM (≈ 0.46 to 0.891 µg/mL).
In the case of `CCCC(=O)Nc1nc(-c2ccccn2)cs1` [Compound 21, N-[4-(2-pyridinyl)-1,3-thiazol-2-yl)butyramide], the minimal inhibitory concentration (MIC) fell in the range of 12 to 25 µM (≈ 2.97 to 6.18 µg/mL).
Regarding `COc1cccc(C(=O)Nc2nc(-c3ccccn3)cs2)c1` [Compound 43], the MIC is 0.19 to 0.39 µM (≈ 0.0592 to 0.121 µg/mL).

The assay is the same for the next values; noted with them: relative to 1.
`O=C(Nc1nc(-c2ccccn2)cs1)c1ccccc1` [Compound 35, 2-[N-(Benzoyl)amino]-4-(pyridin-2-yl)thiazole]: the “fold better MIC than the corresponding N-phenyl 1” value worked out at 64 fold.

The assay is the same for the next values; noted with them: relative to 35.
For the molecule `Cc1cccc(C(=O)Nc2nc(-c3ccccn3)cs2)c1` [Compound 37], the “fold increase in potency relative to benzoyl 35” value is listed as 2- to 4 fold.
On to `O=C(Nc1nc(-c2ccccn2)c[nH]1)c1ccccc1` [Compound 78, 2-[N-(Benzoyl)amino]-4-(pyridin-2-yl)imidazole], for which the “fold loss of potency relative to the parent thiazole 35” value is 16- to 64 fold.
For `O=C(Nc1cc(-c2ccccn2)cs1)c1ccccc1` [Compound 75, 2-[N-(Benzoyl)amino]-4-(pyridin-2-yl)thiophene], the “fold loss of potency relative to the parent thiazole 35” value is reported as at least 64 fold.
Turning to `O=C(Nc1nc(-c2ccccn2)co1)c1ccccc1` [Compound 82, 2-[N-(Benzoyl)amino]-4-(pyridin-2-yl)oxazole], the “fold loss of potency relative to the parent thiazole 35” value was 16- to 64 fold.

Still in this assay, the particulars now being: relative to 69.
Take `O=C(Nc1nc(-c2ccccn2)cs1)c1cccnc1Cl` [Compound 67]: the “fold improvement of activity over nicotinoyl 69” value is 8- to 16 fold.

The same assay, now with this note: relative to oxazole 82.
Regarding `O=C(Nc1nnc(-c2ccccn2)o1)c1ccccc1F` [Compound 83, 2-[N-(2-Fluorobenzoyl)amino]-5-(pyridin-2-yl)-1,3,4-oxadiazole], the “regain in potency relative to 82” value was 2–4.

The test system of a further assay is Vero cells. Kind of assay: Vero cell cytotoxicity MTT assay. The format is cell-based, green monkey. Conditions: 72 h, concentration that inhibited 50% viability. For orientation: Tetrazolium dyes change colour on reduction, which living cells bring about.
Regarding `O=C(Nc1nc(-c2ccccn2)cs1)c1ccccc1OCc1ccccc1` [Compound 39], the “EC50, μM” value was “insol”.

For a further assay, the system named is Mtb.
Assay: not given
The note with it: reported values; cited from earlier work.
For `FC(F)(F)c1ccccc1Nc1nc(-c2ccccn2)cs1` [Compound 13], the “reported MIC (HTS results)” value was below 0.3 µM.
With `Fc1ccc(Nc2nc(-c3ccccn3)cs2)cc1` [Compound 12], the “reported MIC (HTS results)” value is 2 µM.
Take `Clc1ccc(Nc2nc(-c3ccccn3)cs2)nc1` [Compound 18]: the “reported MIC (HTS results)” value is 0.35 µM.
In the case of `Cc1cccc(Nc2nc(-c3ccccn3)cs2)n1` [Compound 19], the “reported MIC (HTS results)” value is 0.35 µM.
